In ChEMBL document CHEMBL4414656, “Alkaloids from the Branches and Leaves of Elaeocarpus angustifolius” (J Nat Prod, 2019) one finds IC50 data, which are given here for 14 compounds.

The structures appear in SMILES notation.

Cholinesterase, sequence (P06276 whole entry): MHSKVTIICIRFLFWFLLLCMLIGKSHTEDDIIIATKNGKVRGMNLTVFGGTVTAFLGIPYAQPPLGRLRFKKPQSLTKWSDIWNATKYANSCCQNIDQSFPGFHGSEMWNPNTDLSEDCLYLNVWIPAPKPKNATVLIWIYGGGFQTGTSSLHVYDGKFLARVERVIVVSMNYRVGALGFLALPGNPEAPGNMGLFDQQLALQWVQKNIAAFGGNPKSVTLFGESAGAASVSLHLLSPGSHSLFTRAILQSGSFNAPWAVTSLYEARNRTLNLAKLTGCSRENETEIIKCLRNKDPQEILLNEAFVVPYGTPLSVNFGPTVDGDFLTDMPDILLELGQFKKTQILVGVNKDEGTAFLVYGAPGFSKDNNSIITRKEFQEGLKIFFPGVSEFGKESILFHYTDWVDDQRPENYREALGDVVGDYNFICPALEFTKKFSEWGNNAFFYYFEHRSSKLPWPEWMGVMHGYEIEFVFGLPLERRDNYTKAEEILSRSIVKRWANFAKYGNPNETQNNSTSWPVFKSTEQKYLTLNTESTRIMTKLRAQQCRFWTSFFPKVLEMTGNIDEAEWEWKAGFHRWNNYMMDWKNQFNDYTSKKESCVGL

This experiment addresses Cholinesterase (Homo sapiens, UniProt P06276). Put plainly: Inhibition of human […] BuChE using S-butyrylthiocholine iodide as substrate preincubated for 20 mins followed by substrate addition and measured every 30 secs for 1 hr by Ellman's method.
Take `Cc1cccc2c1C(=O)[C@@H]1[C@H]3CCC[N@+]3([O-])CC[C@H]1O2` (racemic): the IC50 (usually the concentration at which inhibition is half-maximal) is above 50 µM.
`Cc1cccc2c1C(=O)C1=C3CCCN3CCC1O2` (racemic) had an IC50 of 39 µM.
The figure for `Cc1cccc2c1C(=O)CC(CCCNCCCO)O2` (racemic) is above 50 µM; for `Cc1cccc2c1C(=O)[C@H]1[C@H](CCN3CCC[C@H]13)O2` (racemic) [ISOELAEOCARPINE] it is above 50 µM; for `Cc1cccc2c1C(=O)[C@H]1[C@@H](CC[N@@+]3([O-])CCC[C@@H]13)O2` (racemic) it is 29 µM.
The figure for `Cc1cccc2c1C(=O)[C@@H]1[C@H]3CCC(=O)N3CC[C@H]1O2` is above 50 µM.
The same measure for `Cc1cccc(O)c1C(=O)CC1CCCN1CCCO` (racemic): above 50 µM; for `Cc1cccc2c1C(=O)[C@@H]1[C@H](CCN3C(=O)CC[C@@H]13)O2`: above 50 µM; for `Cc1cccc2c1C(=O)[C@@H]1[C@H]3CCCN3CC[C@H]1O2` (racemic): 35 µM.
`Cc1cccc(O)c1C(=O)C[C@@H]1CC[C@@H]2[C@H]3C(=O)c4c(C)cccc4O[C@@H]3CCN12` (racemic) registered an IC50 above 50 µM.
The figure for `Cc1cccc(O)c1C(=O)C[C@H]1CC[C@H]2[C@@H]3C(=O)c4c(C)cccc4O[C@@H]3CCN12` is above 50 µM; for `Cc1cccc2c1C(=O)[C@H]1[C@H](CCN3C(=O)CC[C@H]13)O2` (racemic) it is above 50 µM; for `Cc1cccc2c1C(=O)[C@@H]1[C@H]3CCC[N@@+]3([O-])CC[C@H]1O2` (racemic) it is above 50 µM.
`Cc1cccc(O)c1C(=O)C[C@@H]1CC[C@@H]2[C@H]3C(=O)c4c(C)cccc4O[C@H]3CCN12` gave an IC50 above 50 µM.
